Assay results published in patent US8822449B2, “Substituted aminoindanes and analogs thereof, and the pharmaceutical use thereof” (Sanofi, priority 2008, dated 2014).
pIC50: −log10 of the molar value.

Biological target: T1, sodium-proton exchanger of subtype 3 (NHE3) (Homo sapiens, UniProt P48764)
T1 construct: expressed in transfected cells
T1 sequence (P48764 26-834): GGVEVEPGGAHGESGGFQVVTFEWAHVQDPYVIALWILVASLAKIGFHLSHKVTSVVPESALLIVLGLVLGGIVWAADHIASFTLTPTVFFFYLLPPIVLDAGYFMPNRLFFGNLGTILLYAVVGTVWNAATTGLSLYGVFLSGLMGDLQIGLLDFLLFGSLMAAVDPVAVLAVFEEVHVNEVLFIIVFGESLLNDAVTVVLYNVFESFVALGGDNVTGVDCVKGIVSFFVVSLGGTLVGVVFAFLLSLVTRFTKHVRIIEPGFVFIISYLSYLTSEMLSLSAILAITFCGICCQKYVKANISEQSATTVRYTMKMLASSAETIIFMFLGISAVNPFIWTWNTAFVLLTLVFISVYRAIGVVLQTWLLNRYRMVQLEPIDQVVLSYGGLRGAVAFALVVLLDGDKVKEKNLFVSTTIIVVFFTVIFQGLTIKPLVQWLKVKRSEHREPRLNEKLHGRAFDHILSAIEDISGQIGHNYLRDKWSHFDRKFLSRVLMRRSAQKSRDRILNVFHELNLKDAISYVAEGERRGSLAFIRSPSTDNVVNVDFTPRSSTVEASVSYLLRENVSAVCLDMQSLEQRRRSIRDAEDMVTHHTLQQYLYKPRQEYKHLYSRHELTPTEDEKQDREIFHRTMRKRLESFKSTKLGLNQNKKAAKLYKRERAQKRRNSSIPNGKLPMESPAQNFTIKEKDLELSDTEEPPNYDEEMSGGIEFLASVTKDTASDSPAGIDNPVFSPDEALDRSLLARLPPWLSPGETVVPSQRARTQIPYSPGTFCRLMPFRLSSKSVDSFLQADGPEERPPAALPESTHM
Assay: Recovery of intracellular pH (pHi) after acidification in LAP1 cells stably expressing NHE3 (BCECF fluorescence, FLIPR)
Assay type: cell-based
Conditions: LAP1 cells stably expressing NHE3; pH recovery after acidification; range 1 is % inhibition at 10 μM; read-out: Activity range (inhibitory effect on NHE3)

Structure (SMILES) | inhibition at 10 µM | pIC50
COCCc1ccc(O[C@H]2c3ccccc3CC[C@@H]2N2CCC[C@@H](N)C2)cc1 (racemic) [Example 115, (R)-1-{rac-trans-(1,2)-1-[4-(2-methoxyethyl)phenoxy]-1,2,3,4-tetrahydronaphthalen-2-yl}piperidin-3-ylamine] | 20 to 50% | –
CS(=O)(=O)Nc1ccc(C(=O)O[C@H]2c3ccccc3C[C@@H]2N2CCCC2)c(Cl)c1 [Example 394, 2-chloro-4-methanesulfonylaminobenzoic acid (1S,2S)-2-pyrrolidin-1-ylindan-1-yl ester] | – | 5.00 to 6.00
N[C@@H]1CCCN([C@H]2CCc3ccccc3[C@@H]2Oc2ccc(F)cc2F)C1 (racemic) [Example 32, (R)-1-[rac-trans-(1,2)-1-(2,4-difluorophenoxy)-1,2,3,4-tetrahydronaphthalen-2-yl]piperidin-3-ylamine] | 20 to 50% | –
O=c1[nH]ccn1-c1ccc(O[C@H]2c3cc(Cl)cc(Cl)c3C[C@@H]2N2CC[C@@H](O)C2)c(F)c1 [Example 323, 1-{4-[(1S,2S)-4,6-dichloro-2-((R)-3-hydroxypyrrolidin-1-yl)indan-1-yloxy]-3-fluorophenyl}-1,3-dihydroimidazol-2-one] | – | > 6.00
N#Cc1cc(Cl)ccc1O[C@@H]1c2ccccc2C[C@H]1N1CCC(N)C1 (mixture of isomers) [Example 375, 2-[rac-trans-(1,2)-2-(3-aminopyrrolidin-1-yl)indan-1-yloxy]-5-chlorobenzonitrile] | – | 5.00 to 6.00
Cc1nc2cc(O[C@@H]3c4ccccc4C[C@H]3N3CCC[C@@H](N)C3)ccc2s1 (racemic) [Example 47, (R)-1-[rac-trans-(1,2)-1-(2-methylbenzothiazol-5-yloxy)indan-2-yl]piperidin-3-ylamine] | – | > 6.00
O=C1CCCN1c1ccc(O[C@H]2c3cc(Cl)cc(Cl)c3C[C@@H]2N2CC[C@@H](O)C2)cc1 [Example 333, 1-{4-[trans-(1S,2S)-4,6-dichloro-2-((R)-3-hydroxypyrrolidin-1-yl)indan-1-yloxy]phenyl}pyrrolidin-2-one] | – | > 6.00
Cc1cc(C)c2cccnc2c1O[C@H]1c2ccccc2CC[C@@H]1N1CCC[C@H](N)C1 (racemic) [Example 187, (S)-1-[rac-trans-(1,2)-1-(5,7-dimethylquinolin-8-yloxy)-1,2,3,4-tetrahydronaphthalen-2-yl]piperidin-3-ylamine] | 20 to 50% | –
CS(=O)(=O)c1ccc(O[C@H]2c3cc(Cl)cc(F)c3C[C@@H]2N2CCCC2)cc1 (racemic) [Example 293, 1-[rac-trans-(1,2)-6-chloro-4-fluoro-1-(4-methanesulfonylphenoxy)indan-2-yl]pyrrolidine] | – | 5.00 to 6.00
Cc1nn(C)c(C)c1-c1ccc(O[C@H]2c3cc(Cl)ccc3C[C@@H]2N2CC[C@@H](O)C2)cc1 [Example 140, (R)-1-{trans-(1S,2S)-6-chloro-1-[4-(1,3,5-trimethyl-1H-pyrazol-4-yl)phenoxy]indan-2-yl}pyrrolidin-3-ol] | – | 5.00 to 6.00
N[C@@H]1CCCN([C@H]2CCc3ccccc3[C@@H]2Oc2ccc(F)cc2-c2ccno2)C1 (racemic) [Example 68, (R)-1-[rac-trans-(1,2)-1-(4-fluoro-2-isoxazol-5-ylphenoxy)-1,2,3,4-tetrahydronaphthalen-2-yl]piperidin-3-ylamine] | 20 to 50% | –
N[C@H]1CCCN([C@H]2CCc3ccccc3[C@@H]2Oc2ccc(F)cc2)C1 (racemic) [Example 179, (S)-1-[rac-trans-(1,2)-1-(4-fluorophenoxy)-1,2,3,4-tetrahydronaphthalen-2-yl]piperidin-3-ylamine] | 20 to 50% | –
Cc1noc(C)c1-c1ccc(O[C@H]2c3cc(Cl)cc(Cl)c3C[C@@H]2N2CC[C@@H](O)C2)cc1 [Example 135, (R)-1-{trans-(1S,2S)-4,6-dichloro-1-[4-(3,5-dimethylisoxazol-4-yl)phenoxy]indan-2-yl}pyrrolidin-3-ol] | 20 to 50% | –
N#Cc1ccc(O[C@@H]2c3ccccc3C[C@H]2N2C[C@H]3CNC[C@H]3C2)cc1F (racemic) [Example 397, 2-fluoro-4-[rac-trans-(1,2)-2-(hexahydropyrrolo[3,4-c]pyrrol-2-yl)indan-1-yloxy]benzonitrile] | – | 5.00 to 6.00
CS(=O)(=O)c1ccc(O[C@H]2c3cc(F)ccc3C[C@@H]2N2CCNCC2)cc1 (racemic) [Example 294, 1-[rac-trans-(1,2)-6-fluoro-1-(4-methanesulfonylphenoxy)indan-2-yl]piperazine] | – | 5.00 to 6.00
O=S1(=O)CCCN1c1cccc(O[C@H]2c3ccccc3C[C@@H]2N2CCCC2)c1 (racemic) [Example 363, 2-[3-(rac-trans-(1,2)-2-pyrrolidin-1-ylindan-1-yloxy)phenyl]isothiazolidine 1,1-dioxide] | – | 5.00 to 6.00
Nc1ccc2c(O[C@H]3c4ccccc4CC[C@@H]3N3CCC[C@@H](N)C3)cccc2c1 (racemic) [Example 80, (R)-1-[rac-trans-(1,2)-1-(6-aminonaphthalen-1-yloxy)-1,2,3,4-tetrahydronaphthalen-2-yl]piperidin-3-ylamine] | – | 5.00 to 6.00

The remaining lines, values ahead:

inhibition at 10 µM | pIC50 | Structure (SMILES)
– | > 6.00 | Cc1nnc(C)n1-c1ccc(O[C@H]2c3ccccc3C[C@@H]2N2CCCC2)c(Cl)c1 [Example 491, 4-[3-chloro-4-(trans-(1S,2S)-2-pyrrolidin-1-ylindan-1-yloxy)phenyl]-3,5-dimethyl-4H-[1,2,4]triazole]
– | 5.00 to 6.00 | O=C1CNC(=O)N1c1ccc(O[C@H]2c3cc(Cl)cc(F)c3C[C@@H]2NC2CCCC2)c(F)c1 [Example 753, 3-[4-(trans-(1S,2S)-6-Chloro-2-cyclopentylamino-4-fluoro-indan-1-yloxy)-3-fluoro-phenyl]-imidazolidine-2,4-dione]
20 to 50% | – | N#Cc1ccc(O[C@H]2c3ccccc3CC[C@@H]2N2CCC[C@H](N)C2)c([N+](=O)[O-])c1 (racemic) [Example 534, 4-[rac-trans-(1,2)-2-((S)-3-aminopiperidin-1-yl)-1,2,3,4-tetrahydronaphthalen-1-yloxy]-3-nitrobenzonitrile]
– | > 6.00 | CC(=O)Nc1cccc(O[C@H]2c3cc(F)cc(Cl)c3C[C@@H]2N2CCNCC2)c1 (racemic) [Example 650, N-[3-(rac-trans-(1,2)-4-chloro-6-fluoro-2-piperazin-1-ylindan-1-yloxy)phenyl]acetamide]
– | 5.00 to 6.00 | Nc1cccc(O[C@@H]2c3ccccc3C[C@H]2N2CCCC2)c1 (racemic) [Example 401, 3-(rac-trans-(1,2)-2-pyrrolidin-1-ylindan-1-yloxy)phenylamine]
20 to 50% | – | COc1cc(C#N)cc(Cl)c1O[C@H]1c2ccccc2CC[C@@H]1N1CCC[C@@H](N)C1 (racemic) [Example 512, 4-[rac-trans-(1,2)-2-((R)-3-aminopiperidin-1-yl)-1,2,3,4-tetrahydronaphthalen-1-yloxy]-3-chloro-5-methoxy-benzonitrile]
– | 5.00 to 6.00 | CN(c1ccc(F)c(O[C@H]2c3cc(Cl)cc(F)c3C[C@@H]2N2CC[C@@H](O)C2)c1)S(C)(=O)=O [Example 673, N-{3-[(1S,2S)-6-chloro-4-fluoro-2-((R)-3-hydroxypyrrolidin-1-yl)indan-1-yloxy]-4-fluorophenyl}-N-methyl-methanesulfonamide]
20 to 50% | – | N#Cc1cc(Cl)ccc1O[C@H]1c2ccccc2CC[C@@H]1N1CCOCC1 (racemic) [Example 585, 5-chloro-2-(rac-trans-(1,2)-2-morpholin-4-yl-1,2,3,4-tetrahydronaphthalen-1-yloxy)benzonitrile]
– | 5.00 to 6.00 | N#Cc1ccc(O[C@H]2c3ccccc3CC[C@@H]2N2CCC[C@H](N)C2)c(F)c1F (racemic) [Example 528, 4-[rac-trans-(1,2)-2-((S)-3-aminopiperidin-1-yl)-1,2,3,4-tetrahydronaphthalen-1-yloxy]-2,3-difluorobenzonitrile]
20 to 50% | – | NS(=O)(=O)c1ccc(O[C@H]2c3ccccc3C[C@@H]2CN2CCCCC2)c(F)c1 (racemic) [Example 450, 3-fluoro-4-(2-piperidin-1-ylmethylindan-1-yloxy)benzenesulfonamide]
20 to 50% | – | Fc1ccc(O[C@H]2c3cc(Cl)cc(Cl)c3C[C@@H]2N2CCNCC2)c2ncccc12 [Example 592, 8-((1S,2S)-4,6-dichloro-2-piperazin-1-ylindan-1-yloxy)-5-fluoroquinoline]
– | > 6.00 | NS(=O)(=O)c1ccc(O[C@H]2c3ccccc3C[C@@H]2N2CCCCCC2)cc1 (racemic) [Example 464, 4-(rac-trans-(1,2)-2-azepan-1-ylindan-1-yloxy)benzenesulfonamide]
– | 5.00 to 6.00 | NS(=O)(=O)c1ccc(OC2c3ccccc3CC2N2CC[C@@H](O)C2)cc1 (mixture of isomers) [Example 527, 4-[rac-trans-(1,2)-2-((R)-3-Hydroxypyrrolidin-1-yl)indan-1-yloxy]benzenesulfonamide]
